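Where inhibition never reached the appropriate level, the endpoint shown equals the highest concentration tested. Otherwise, values were interpolated linearly from a five-concentration, 48-hour dose response in 96-well plates. TGI marks complete inhibition of growth.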
Legend:
Experiment in all cases: inhibition of tumour cell growth, NCI panel, 48 h
IGROV1 ovarian = system: IGROV1 ovarian
RPMI-8226 leukemia = system: RPMI-8226 leukemia
SF-295 CNS = system: SF-295 CNS
SNB-78 CNS = system: SNB-78 CNS
HCC-2998 colon = system: HCC-2998 colon
SN12C renal = system: SN12C renal
HL-60(TB) leukemia = system: HL-60(TB) leukemia
OVCAR-5 ovarian = system: OVCAR-5 ovarian
UO-31 renal = system: UO-31 renal
UACC-257 melanoma = system: UACC-257 melanoma
TK-10 renal = system: TK-10 renal
SW-620 colon = system: SW-620 colon
HOP-62 NSCLC = system: HOP-62 NSCLC
OVCAR-8 ovarian = system: OVCAR-8 ovarian
DMS 114 small cell lung = system: DMS 114 small cell lung
SF-268 CNS = system: SF-268 CNS
EKVX NSCLC = system: EKVX NSCLC
KM12 colon = system: KM12 colon
KM20L2 colon = system: KM20L2 colon
CCRF-CEM leukemia = system: CCRF-CEM leukemia
DMS 273 small cell lung = system: DMS 273 small cell lung
HT29 colon = system: HT29 colon
U251 CNS = system: U251 CNS
ACHN renal = system: ACHN renal
MOLT-4 leukemia = system: MOLT-4 leukemia
LXFL 529 NSCLC = system: LXFL 529 NSCLC
SK-MEL-28 melanoma = system: SK-MEL-28 melanoma
COLO 205 colon = system: COLO 205 colon
786-0 renal = system: 786-0 renal
NCI-H23 lung = system: NCI-H23 lung
M14 melanoma = system: M14 melanoma
M19-MEL melanoma = system: M19-MEL melanoma
SF-539 CNS = system: SF-539 CNS
UACC-62 melanoma = system: UACC-62 melanoma
A549 NSCLC = system: A549 NSCLC
LOX IMVI melanoma = system: LOX IMVI melanoma
K-562 leukemia = system: K-562 leukemia
SK-OV-3 ovarian = system: SK-OV-3 ovarian
SR leukemia = system: SR leukemia
RXF 393 renal = system: RXF 393 renal
SNB-75 CNS = system: SNB-75 CNS
SNB-19 CNS = system: SNB-19 CNS
OVCAR-3 ovarian = system: OVCAR-3 ovarian
DLD-1 colon = system: DLD-1 colon
HCT-116 colon = system: HCT-116 colon
OVCAR-4 ovarian = system: OVCAR-4 ovarian
NCI-H460 lung = system: NCI-H460 lung
NCI-H226 lung = system: NCI-H226 lung
SK-MEL-5 melanoma = system: SK-MEL-5 melanoma
XF 498 CNS = system: XF 498 CNS
HCT-15 colon = system: HCT-15 colon
MALME-3M melanoma = system: MALME-3M melanoma
NCI-H522 lung = system: NCI-H522 lung
A498 renal = system: A498 renal
SK-MEL-2 melanoma = system: SK-MEL-2 melanoma
HOP-18 NSCLC = system: HOP-18 NSCLC

## N#CNC(=NCCc1c[nH]c2ccccc12)Oc1ccccc1
IGROV1 ovarian
  TGI: > 100 µM
RPMI-8226 leukemia
  TGI: > 100 µM
SF-295 CNS
  TGI: > 100 µM
SNB-78 CNS
  TGI: > 100 µM
HCC-2998 colon
  TGI: > 100 µM
SN12C renal
  TGI: > 100 µM
HL-60(TB) leukemia
  TGI: > 100 µM
OVCAR-5 ovarian
  TGI: > 100 µM
UO-31 renal
  TGI: > 100 µM
UACC-257 melanoma
  TGI: > 100 µM
TK-10 renal
  TGI: > 100 µM
SW-620 colon
  TGI: > 100 µM
HOP-62 NSCLC
  TGI: > 100 µM
OVCAR-8 ovarian
  TGI: > 100 µM
DMS 114 small cell lung
  TGI: > 100 µM
SF-268 CNS
  TGI: > 100 µM
EKVX NSCLC
  TGI: > 100 µM
KM12 colon
  TGI: > 100 µM
KM20L2 colon
  TGI: 49.8 µM
CCRF-CEM leukemia
  TGI: > 100 µM
DMS 273 small cell lung
  TGI: > 100 µM
HT29 colon
  TGI: > 100 µM
U251 CNS
  TGI: > 100 µM
ACHN renal
  TGI: > 100 µM
MOLT-4 leukemia
  TGI: > 100 µM
LXFL 529 NSCLC
  TGI: > 100 µM
SK-MEL-28 melanoma
  TGI: > 100 µM
COLO 205 colon
  TGI: > 100 µM
786-0 renal
  TGI: > 100 µM
NCI-H23 lung
  TGI: > 100 µM
M14 melanoma
  TGI: > 100 µM
M19-MEL melanoma
  TGI: > 100 µM
SF-539 CNS
  TGI: > 100 µM
UACC-62 melanoma
  TGI: > 100 µM
A549 NSCLC
  TGI: > 100 µM
LOX IMVI melanoma
  TGI: > 100 µM
K-562 leukemia
  TGI: > 100 µM
SK-OV-3 ovarian
  TGI: > 100 µM
SR leukemia
  TGI: > 100 µM
RXF 393 renal
  TGI: > 100 µM
SNB-75 CNS
  TGI: > 100 µM
SNB-19 CNS
  TGI: > 100 µM
OVCAR-3 ovarian
  TGI: > 100 µM
DLD-1 colon
  TGI: > 100 µM
HCT-116 colon
  TGI: > 100 µM
OVCAR-4 ovarian
  TGI: > 100 µM
NCI-H460 lung
  TGI: > 100 µM
NCI-H226 lung
  TGI: > 100 µM
SK-MEL-5 melanoma
  TGI: > 100 µM
XF 498 CNS
  TGI: > 100 µM
HCT-15 colon
  TGI: > 100 µM

## CC(Oc1ccc(OCC2CCCCC2)cc1)C(=O)NCc1ccco1 (configuration not stated)
IGROV1 ovarian
  TGI: > 100 µM
SNB-78 CNS
  TGI: > 100 µM
HCC-2998 colon
  TGI: > 100 µM
SN12C renal
  TGI: > 100 µM
HL-60(TB) leukemia
  TGI: > 100 µM
UO-31 renal
  TGI: 92.3 µM
UACC-257 melanoma
  TGI: 70.4 µM
TK-10 renal
  TGI: > 100 µM
OVCAR-8 ovarian
  TGI: > 100 µM
DMS 114 small cell lung
  TGI: 56.6 µM
SF-268 CNS
  TGI: > 100 µM
KM12 colon
  TGI: > 100 µM
CCRF-CEM leukemia
  TGI: > 100 µM
DMS 273 small cell lung
  TGI: 94.1 µM
HT29 colon
  TGI: 46.6 µM
U251 CNS
  TGI: > 100 µM
ACHN renal
  TGI: > 100 µM
MOLT-4 leukemia
  TGI: > 100 µM
LXFL 529 NSCLC
  TGI: > 100 µM
SK-MEL-28 melanoma
  TGI: > 100 µM
786-0 renal
  TGI: > 100 µM
MALME-3M melanoma
  TGI: 58.7 µM
M14 melanoma
  TGI: 42.6 µM
M19-MEL melanoma
  TGI: > 100 µM
NCI-H522 lung
  TGI: 35.3 µM
SF-539 CNS
  TGI: 88.1 µM
UACC-62 melanoma
  TGI: > 100 µM
A549 NSCLC
  TGI: > 100 µM
LOX IMVI melanoma
  TGI: 54.3 µM
A498 renal
  TGI: 86.7 µM
K-562 leukemia
  TGI: > 100 µM
SK-OV-3 ovarian
  TGI: > 100 µM
SK-MEL-2 melanoma
  TGI: 59.3 µM
RXF 393 renal
  TGI: 71.4 µM
SNB-75 CNS
  TGI: > 100 µM
SNB-19 CNS
  TGI: > 100 µM
OVCAR-3 ovarian
  TGI: > 100 µM
DLD-1 colon
  TGI: > 100 µM
HCT-116 colon
  TGI: 76.3 µM
HOP-18 NSCLC
  TGI: > 100 µM
OVCAR-4 ovarian
  TGI: > 100 µM
NCI-H460 lung
  TGI: > 100 µM
NCI-H226 lung
  TGI: 94 µM
SK-MEL-5 melanoma
  TGI: 31.4 µM
XF 498 CNS
  TGI: > 100 µM
HCT-15 colon
  TGI: > 100 µM
